Data on 22 compounds can be found in ChEMBL document CHEMBL2086350, “Structure-activity relationship and antitumor activity of thio-benzodiazepines as p53-MDM2 protein-protein interaction inhibitors” (Eur J Med Chem, 2012).

The test system of one experiment is SAOS-2. As to the kind of experiment: Antiproliferative activity against human p53-deficient Saos2 cells after 72 hrs by MTT assay. As to conditions: SAOS-2, 72 h. For orientation: Tetrazolium dyes change colour on reduction, which living cells bring about.
Experiment [1] has as its target E3 ubiquitin-protein ligase Mdm2 (Homo sapiens, UniProt Q00987). As to the kind of experiment: Inhibition of MDM2 binding domain assessed as inhibition of p53 binding to MDM2 after 1 hr by fluorescence polarization assay. Background: In fluorescence polarisation assays a small probe gives low polarisation when free and higher when bound to something large.
The subject of the next experiment is A549. Nature of the experiment: Antiproliferative activity against human A549 cells expressing wild type p53 after 72 hrs by MTT assay. As to conditions: A549, 72 h.
Another experiment has as its system U2OS. Nature of the experiment: Antiproliferative activity against human U2OS cells expressing wild type p53 after 72 hrs by MTT assay.
The test system of another experiment is NCI-H1299. Nature of the experiment: Antiproliferative activity against human p53-deficient NCI-H1299 cells after 72 hrs by MTT assay. The following applies: NCI-H1299, 72 h.

Sequence of E3 ubiquitin-protein ligase Mdm2 (Q00987 whole entry, the tested form may be a part): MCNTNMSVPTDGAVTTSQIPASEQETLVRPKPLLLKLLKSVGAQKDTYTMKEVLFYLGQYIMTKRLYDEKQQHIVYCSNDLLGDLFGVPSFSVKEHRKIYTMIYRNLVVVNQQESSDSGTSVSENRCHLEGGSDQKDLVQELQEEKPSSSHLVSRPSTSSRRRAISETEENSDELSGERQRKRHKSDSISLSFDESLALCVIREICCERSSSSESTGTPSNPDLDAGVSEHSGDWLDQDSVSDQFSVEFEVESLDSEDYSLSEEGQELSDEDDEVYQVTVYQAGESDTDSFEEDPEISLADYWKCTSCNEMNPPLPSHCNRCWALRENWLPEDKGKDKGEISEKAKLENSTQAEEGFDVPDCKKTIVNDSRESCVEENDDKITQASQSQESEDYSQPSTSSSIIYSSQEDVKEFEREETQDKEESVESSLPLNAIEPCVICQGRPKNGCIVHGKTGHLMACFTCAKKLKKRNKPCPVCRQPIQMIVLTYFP

As for `CCOC(=O)CSC1=Nc2cc(OC)ccc2C(=O)N(C(C(=O)OC)c2ccc(Cl)cc2)C1c1ccc(Cl)cc1` (centres undefined), the IC50 with SAOS-2, in the experiment on A549, in the experiment with U2OS and with NCI-H1299 was over 100 µM in each case. In addition, in experiment [1], the Ki – broadly, a measure of affinity in units of concentration, obtained from inhibition or displacement – worked out at 21.1 µM.
For the compound `COC(=O)C(c1ccc(Cl)cc1)N1C(=O)c2ccc(Cl)cc2NC(=S)C1c1ccc(Cl)cc1` (centres undefined), the IC50 (in general, the concentration needed to halve the response being measured) in the experiment with SAOS-2 worked out at 11.1 µM; in the experiment with A549, 37.2 µM; in the experiment with U2OS, 12.1 µM; in the experiment on NCI-H1299 it was 16.5 µM. Also, the Ki in experiment [1] amounted to 1.37 µM.
The like results for `COC(=O)C(c1ccc(Cl)cc1)N1C(=O)c2cccc(OC)c2NC(=S)C1c1ccc(Cl)cc1` (centres undefined) were, in that order, over 100 µM, over 100 µM, over 100 µM, over 100 µM and 8.18 µM.
As for `COC(=O)C(c1ccc(F)cc1)N1C(=O)c2ccc(Cl)cc2NC(=S)C1c1ccc(F)cc1` (centres undefined), the IC50 in the experiment on SAOS-2 was 12.7 µM; in the experiment with A549 it was 25.6 µM; with U2OS, 44.3 µM; in the experiment on NCI-H1299, over 100 µM. Besides, the inhibition constant (Ki) in experiment [1] turned out to be 1.72 µM.
For `COC(=O)C(c1ccc(Cl)cc1)N1C(=O)c2ccc(OC)cc2NC(=S)C1c1ccc(Cl)cc1` (centres undefined), the IC50 is 20 µM with SAOS-2, over 100 µM with A549, 35.3 µM with U2OS and over 100 µM in the experiment with NCI-H1299. Also, the Ki in experiment [1] was over 100 µM.
Turning to `COC(=O)C(c1ccc(Cl)cc1)N1C(=O)c2cccc(Cl)c2NC(=S)C1c1ccc(Cl)cc1` (centres undefined), the IC50 with SAOS-2 is 61.8 µM; with A549, over 100 µM; with U2OS it was 88.5 µM; with NCI-H1299 it was over 100 µM. The Ki in experiment [1] is over 100 µM.
As for `COC(=O)C(c1ccc(Cl)cc1)N1C(=O)c2cccc(C)c2NC(=S)C1c1ccc(Cl)cc1` (centres undefined), the IC50 in the experiment with SAOS-2 is 19.1 µM; in the experiment on A549, over 100 µM; with U2OS, 27.8 µM; in the experiment on NCI-H1299 it was 73.3 µM. In addition, the Ki in experiment [1] is over 100 µM.
Consider `COC(=O)C(c1ccc(Cl)cc1)N1C(=O)c2ccc(Cl)cc2NC(=S)C1c1ccc(C(F)(F)F)cc1` (centres undefined), for which the IC50 worked out at 9.23 µM in the experiment on SAOS-2, 23.7 µM with A549, 27.4 µM in the experiment on U2OS and 39.5 µM in the experiment on NCI-H1299.
Taken in the same sequence, the figures for `COC(=O)C(c1ccc(Cl)cc1)N1C(=O)c2ccc(F)cc2NC(=S)C1c1ccc(Cl)cc1` (centres undefined) were 6.59 µM, 8.44 µM, 12 µM and 16.5 µM.
Regarding `COC(=O)C(c1ccc(Cl)cc1)N1C(=O)c2cc(Cl)ccc2NC(=S)C1c1ccc(Cl)cc1` (centres undefined), the half-inhibitory concentration (IC50) in the experiment with SAOS-2 was determined as 8.91 µM; with A549, 18.7 µM; in the experiment on U2OS, 3.5 µM; with NCI-H1299, 24.7 µM. Besides, in experiment [1], the Ki came to 0.721 µM.
Regarding `COC(=O)C(c1ccc(F)cc1)N1C(=O)c2ccc(F)cc2NC(=S)C1c1ccc(Cl)cc1` (centres undefined), the IC50 with SAOS-2 was 32.1 µM; in the experiment on A549 it was 19.4 µM; with U2OS, 28 µM; with NCI-H1299, 25 µM. Besides, the Ki in experiment [1] is 1.05 µM.
Consider `COC(=O)C(c1ccc(Cl)cc1)N1C(=O)c2ccc(Cl)cc2NC(=S)C1c1ccc(OC)cc1` (centres undefined), for which the IC50 was over 100 µM with SAOS-2, over 100 µM in the experiment on A549, 33.9 µM in the experiment with U2OS and over 100 µM in the experiment on NCI-H1299. Also, the Ki in experiment [1] stood at 11.9 µM.
For `COC(=O)C(c1ccc(Cl)cc1)N1C(=O)c2cc(C)ccc2NC(=S)C1c1ccc(Cl)cc1` (centres undefined), the IC50 was 25.5 µM in the experiment with SAOS-2, over 100 µM with A549, 32.7 µM in the experiment with U2OS and 73.6 µM in the experiment on NCI-H1299. The Ki in experiment [1] came out at 37.7 µM.
As to `COC(=O)C(c1ccc(F)cc1)N1C(=O)c2cc(Cl)ccc2NC(=S)C1c1ccc(Cl)cc1` (centres undefined), the IC50 in the experiment on SAOS-2 stood at 6.48 µM; in the experiment with A549 it was 19.7 µM; in the experiment on U2OS it was 7.23 µM; with NCI-H1299, 29.7 µM.
Regarding `COC(=O)C(c1ccc(Cl)cc1)N1C(=O)c2cc(F)c(F)cc2NC(=S)C1c1ccc(Cl)cc1` (centres undefined), the IC50 was 3.84 µM with SAOS-2, 11.3 µM with A549, 2.61 µM in the experiment with U2OS and 5.73 µM in the experiment with NCI-H1299. Besides, the Ki in experiment [1] is over 100 µM.
For the compound `COc1ccc(C2=N[C@@H](c3ccc(Cl)cc3)[C@@H](c3ccc(Cl)cc3)N2C(=O)N2CCNC(=O)C2)c(OC(C)C)c1` [NUTLIN-3], the IC50 in the experiment on SAOS-2 was determined as 12.1 µM; with A549, 15 µM; with U2OS, 19.6 µM; in the experiment on NCI-H1299, 20.4 µM.
Taken in the same sequence, the figures for `COC(=O)C(c1ccc(Cl)cc1)N1C(=O)c2ccc(C(F)(F)F)cc2NC(=S)C1c1ccc(Cl)cc1` (centres undefined) were 6.78 µM, 26.9 µM, 5.69 µM and 11.1 µM.
As to `COC(=O)C(c1ccc(Cl)cc1)N1C(=O)c2cc(F)ccc2NC(=S)C1c1ccc(Cl)cc1` (centres undefined), the IC50 turned out to be 11.9 µM in the experiment on SAOS-2, 12.9 µM in the experiment on A549, 7.53 µM in the experiment with U2OS and 14.5 µM in the experiment on NCI-H1299.
In the case of `COC(=O)C(c1ccc(Cl)cc1)N1C(=O)c2ccc(NCc3ccc(C(F)(F)F)cc3)cc2NC(=S)C1c1ccc(Cl)cc1` (centres undefined), the IC50 in the experiment with SAOS-2 came out at 25.3 µM; in the experiment with A549, 25.7 µM; in the experiment with U2OS it was 15.9 µM; in the experiment with NCI-H1299, 42.6 µM. Besides, the Ki in experiment [1] was 6.7 µM.
The like results for `COC(=O)C(c1ccc(F)cc1)N1C(=O)c2ccc(C(F)(F)F)cc2NC(=S)C1c1ccc(Cl)cc1` (centres undefined) were, in that order, 13.7 µM, 9.44 µM, 11.8 µM, 14 µM and 3.02 µM.
Take `COC(=O)C(c1ccc(Cl)cc1)N1C(=O)c2ccc(Br)cc2NC(=S)C1c1ccc(Cl)cc1` (centres undefined): the IC50 in the experiment with SAOS-2 is 11 µM; with A549, over 100 µM; in the experiment with U2OS, 35.7 µM; with NCI-H1299 it was 35.4 µM. Further, the Ki in experiment [1] stood at 3.98 µM.
Turning to `COC(=O)C(c1ccc(Cl)cc1)N1C(=O)c2ccc(Cl)cc2N=C(SC)C1c1ccc(Cl)cc1` (centres undefined), the IC50 was over 100 µM with SAOS-2, over 100 µM in the experiment with A549, 67.6 µM in the experiment with U2OS and over 100 µM in the experiment on NCI-H1299. In experiment [1], the Ki was over 100 µM.
